Measurements taken from PMC8617627, “Novel DYRK1A Inhibitor Rescues Learning and Memory Deficits in a Mouse Model of Down Syndrome” (Pharmaceuticals, 2021).
Where two headings read alike, the source gives them in different places.

What was measured:
Experiment in all cases: Kinase profile (33P ATP filter binding)
Format in all cases: biochemical
Settings in all cases: read-out: Remaining protein kinase activity
TTBK1 = TTBK1 (Homo sapiens, UniProt Q5TCY1)
LKB1 = biological target: T1, LKB1 (Homo sapiens, UniProt Q15831)
T1 sequence (Q15831 1-433): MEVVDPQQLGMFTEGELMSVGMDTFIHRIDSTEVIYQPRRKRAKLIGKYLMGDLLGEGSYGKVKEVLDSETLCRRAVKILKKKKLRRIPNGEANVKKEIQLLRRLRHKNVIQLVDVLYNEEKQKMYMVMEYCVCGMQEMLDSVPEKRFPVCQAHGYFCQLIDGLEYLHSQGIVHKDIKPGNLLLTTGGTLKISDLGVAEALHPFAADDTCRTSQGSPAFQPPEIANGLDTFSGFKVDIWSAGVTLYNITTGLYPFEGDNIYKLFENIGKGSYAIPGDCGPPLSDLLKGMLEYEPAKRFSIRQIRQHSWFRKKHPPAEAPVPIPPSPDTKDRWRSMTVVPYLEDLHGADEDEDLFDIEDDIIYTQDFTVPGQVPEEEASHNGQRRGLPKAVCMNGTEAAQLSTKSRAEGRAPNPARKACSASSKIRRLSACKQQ
T1 sequence (Q7RTN6 1-431 partner): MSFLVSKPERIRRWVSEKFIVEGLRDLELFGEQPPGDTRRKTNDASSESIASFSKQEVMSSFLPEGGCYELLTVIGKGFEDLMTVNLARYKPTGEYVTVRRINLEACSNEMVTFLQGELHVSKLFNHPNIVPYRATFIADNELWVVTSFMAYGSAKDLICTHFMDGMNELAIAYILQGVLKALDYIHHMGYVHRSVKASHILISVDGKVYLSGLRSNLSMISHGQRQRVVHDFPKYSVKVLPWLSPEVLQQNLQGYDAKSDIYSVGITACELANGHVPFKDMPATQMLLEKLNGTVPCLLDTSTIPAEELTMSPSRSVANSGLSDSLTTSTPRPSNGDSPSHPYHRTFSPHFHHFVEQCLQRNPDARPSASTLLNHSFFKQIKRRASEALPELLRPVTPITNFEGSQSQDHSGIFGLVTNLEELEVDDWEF
T1 sequence (Q9Y376 1-341 partner): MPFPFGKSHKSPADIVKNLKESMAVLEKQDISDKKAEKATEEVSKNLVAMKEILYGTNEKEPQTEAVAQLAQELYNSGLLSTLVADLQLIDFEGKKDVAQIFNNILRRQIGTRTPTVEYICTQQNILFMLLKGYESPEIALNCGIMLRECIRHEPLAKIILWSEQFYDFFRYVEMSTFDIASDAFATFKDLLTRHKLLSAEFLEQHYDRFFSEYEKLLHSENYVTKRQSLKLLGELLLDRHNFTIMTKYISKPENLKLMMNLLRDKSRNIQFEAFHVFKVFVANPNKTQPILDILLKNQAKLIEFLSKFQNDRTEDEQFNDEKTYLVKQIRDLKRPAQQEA

ZAP70 = biological target: T2, ZAP70 (Homo sapiens, UniProt P43403)
T2 sequence (P43403 1-619): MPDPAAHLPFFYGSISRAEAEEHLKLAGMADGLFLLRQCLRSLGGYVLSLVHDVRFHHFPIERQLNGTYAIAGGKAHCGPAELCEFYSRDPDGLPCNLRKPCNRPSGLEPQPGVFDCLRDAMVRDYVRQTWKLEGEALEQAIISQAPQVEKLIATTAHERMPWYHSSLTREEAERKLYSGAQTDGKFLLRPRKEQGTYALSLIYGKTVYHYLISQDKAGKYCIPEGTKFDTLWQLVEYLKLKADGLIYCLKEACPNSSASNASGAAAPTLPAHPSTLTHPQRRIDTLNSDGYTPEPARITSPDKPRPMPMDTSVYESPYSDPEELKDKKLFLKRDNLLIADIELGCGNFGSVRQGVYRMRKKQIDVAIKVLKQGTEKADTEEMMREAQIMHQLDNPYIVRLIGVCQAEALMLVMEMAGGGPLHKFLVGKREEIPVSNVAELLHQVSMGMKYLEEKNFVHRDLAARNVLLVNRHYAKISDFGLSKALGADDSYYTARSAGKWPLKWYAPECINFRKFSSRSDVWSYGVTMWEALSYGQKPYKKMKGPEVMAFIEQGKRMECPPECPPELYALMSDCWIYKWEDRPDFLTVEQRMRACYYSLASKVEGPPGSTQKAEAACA

CAMKKb = CAMKKb (Homo sapiens, UniProt Q96RR4)
CAMKKb, sequence (Q96RR4 whole entry): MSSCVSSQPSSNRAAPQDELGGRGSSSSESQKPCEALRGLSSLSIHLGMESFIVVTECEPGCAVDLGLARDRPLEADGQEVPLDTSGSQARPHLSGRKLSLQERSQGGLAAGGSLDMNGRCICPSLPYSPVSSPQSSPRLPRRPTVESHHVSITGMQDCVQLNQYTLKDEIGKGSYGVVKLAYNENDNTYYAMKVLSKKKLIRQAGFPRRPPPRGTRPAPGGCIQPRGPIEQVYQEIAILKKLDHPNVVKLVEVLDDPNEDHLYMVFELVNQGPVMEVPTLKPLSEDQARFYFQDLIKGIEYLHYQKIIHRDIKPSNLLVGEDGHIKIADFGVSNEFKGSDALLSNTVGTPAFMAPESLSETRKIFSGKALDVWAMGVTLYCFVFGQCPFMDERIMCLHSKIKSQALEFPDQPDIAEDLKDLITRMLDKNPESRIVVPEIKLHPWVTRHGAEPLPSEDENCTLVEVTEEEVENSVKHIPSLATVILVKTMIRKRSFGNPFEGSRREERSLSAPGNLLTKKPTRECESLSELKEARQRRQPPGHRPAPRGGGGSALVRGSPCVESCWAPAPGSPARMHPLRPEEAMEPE

p38b MAPK = p38b MAPK (Homo sapiens, UniProt Q15759)
p38b MAPK, sequence (Q15759 whole entry): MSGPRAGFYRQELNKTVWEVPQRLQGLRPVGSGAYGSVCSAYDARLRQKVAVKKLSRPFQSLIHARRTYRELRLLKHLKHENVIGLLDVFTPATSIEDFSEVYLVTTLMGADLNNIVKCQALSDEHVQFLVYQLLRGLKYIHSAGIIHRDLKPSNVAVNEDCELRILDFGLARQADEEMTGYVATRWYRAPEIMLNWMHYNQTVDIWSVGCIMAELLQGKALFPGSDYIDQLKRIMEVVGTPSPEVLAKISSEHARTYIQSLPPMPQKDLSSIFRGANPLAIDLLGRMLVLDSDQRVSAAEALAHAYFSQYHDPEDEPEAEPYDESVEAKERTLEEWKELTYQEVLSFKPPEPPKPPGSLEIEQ

BRK = BRK (Homo sapiens, UniProt Q13882)
BRK, sequence (Q13882 whole entry): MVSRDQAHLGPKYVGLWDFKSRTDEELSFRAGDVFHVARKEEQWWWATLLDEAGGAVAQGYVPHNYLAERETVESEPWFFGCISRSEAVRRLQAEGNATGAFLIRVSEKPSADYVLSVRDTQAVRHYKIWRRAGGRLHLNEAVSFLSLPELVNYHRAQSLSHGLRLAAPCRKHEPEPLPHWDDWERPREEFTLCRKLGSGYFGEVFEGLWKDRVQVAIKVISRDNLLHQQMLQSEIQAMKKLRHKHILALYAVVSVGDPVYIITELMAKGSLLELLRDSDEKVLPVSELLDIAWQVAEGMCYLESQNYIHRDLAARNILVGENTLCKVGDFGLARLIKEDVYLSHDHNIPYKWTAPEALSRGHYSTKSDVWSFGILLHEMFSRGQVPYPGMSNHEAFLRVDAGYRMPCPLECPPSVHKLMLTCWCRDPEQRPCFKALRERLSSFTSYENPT

SmMLCK = SmMLCK (Homo sapiens, UniProt Q15746)
SmMLCK, sequence (Q15746 923-1914): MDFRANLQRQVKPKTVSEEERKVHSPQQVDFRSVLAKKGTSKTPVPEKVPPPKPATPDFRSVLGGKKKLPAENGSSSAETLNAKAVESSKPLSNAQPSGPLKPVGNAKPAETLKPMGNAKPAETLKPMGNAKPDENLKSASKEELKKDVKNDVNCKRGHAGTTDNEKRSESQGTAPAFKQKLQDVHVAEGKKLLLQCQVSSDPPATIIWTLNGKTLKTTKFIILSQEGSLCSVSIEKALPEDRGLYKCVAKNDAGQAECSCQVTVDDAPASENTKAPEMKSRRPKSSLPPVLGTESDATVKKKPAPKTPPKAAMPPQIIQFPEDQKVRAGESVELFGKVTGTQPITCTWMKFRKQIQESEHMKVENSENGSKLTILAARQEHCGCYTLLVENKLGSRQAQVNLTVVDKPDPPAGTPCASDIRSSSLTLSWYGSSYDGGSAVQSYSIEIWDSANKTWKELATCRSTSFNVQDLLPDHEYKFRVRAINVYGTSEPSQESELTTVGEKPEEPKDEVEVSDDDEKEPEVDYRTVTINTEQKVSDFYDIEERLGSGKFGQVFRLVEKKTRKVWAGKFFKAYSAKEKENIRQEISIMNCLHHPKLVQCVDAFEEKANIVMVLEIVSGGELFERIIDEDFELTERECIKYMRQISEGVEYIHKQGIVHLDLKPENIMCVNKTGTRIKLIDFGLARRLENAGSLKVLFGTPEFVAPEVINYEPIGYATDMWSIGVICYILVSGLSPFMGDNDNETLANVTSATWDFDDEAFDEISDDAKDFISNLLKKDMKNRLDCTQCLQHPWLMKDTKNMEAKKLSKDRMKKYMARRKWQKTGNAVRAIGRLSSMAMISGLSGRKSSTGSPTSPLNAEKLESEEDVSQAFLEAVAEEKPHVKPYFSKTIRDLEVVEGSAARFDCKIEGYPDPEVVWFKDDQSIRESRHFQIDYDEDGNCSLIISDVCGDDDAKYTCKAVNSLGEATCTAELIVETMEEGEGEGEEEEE

VEG-FR = VEG-FR (Homo sapiens, UniProt P17948)
IRAK1 = IRAK1 (Homo sapiens, UniProt P51617)
IRAK1, sequence (P51617 whole entry): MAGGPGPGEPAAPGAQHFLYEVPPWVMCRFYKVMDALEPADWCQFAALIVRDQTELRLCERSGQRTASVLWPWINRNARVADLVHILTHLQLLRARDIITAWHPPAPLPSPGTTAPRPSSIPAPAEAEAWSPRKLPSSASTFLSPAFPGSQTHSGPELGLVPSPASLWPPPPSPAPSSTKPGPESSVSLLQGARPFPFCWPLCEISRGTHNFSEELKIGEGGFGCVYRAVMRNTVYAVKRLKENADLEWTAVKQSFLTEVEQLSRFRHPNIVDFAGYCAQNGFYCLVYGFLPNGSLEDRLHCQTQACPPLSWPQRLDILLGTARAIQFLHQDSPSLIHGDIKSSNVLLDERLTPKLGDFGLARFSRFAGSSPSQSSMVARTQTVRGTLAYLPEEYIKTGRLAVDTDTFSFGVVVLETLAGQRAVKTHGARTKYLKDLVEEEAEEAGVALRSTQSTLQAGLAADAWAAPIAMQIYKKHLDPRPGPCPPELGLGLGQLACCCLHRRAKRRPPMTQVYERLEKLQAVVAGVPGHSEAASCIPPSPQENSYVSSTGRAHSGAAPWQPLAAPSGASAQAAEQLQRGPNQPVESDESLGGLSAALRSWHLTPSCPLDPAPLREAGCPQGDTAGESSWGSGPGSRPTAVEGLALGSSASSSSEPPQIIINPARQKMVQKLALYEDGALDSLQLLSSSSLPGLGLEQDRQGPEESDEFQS

Lck = Lck (Homo sapiens, UniProt P06239)
Lck, sequence (P06239 whole entry): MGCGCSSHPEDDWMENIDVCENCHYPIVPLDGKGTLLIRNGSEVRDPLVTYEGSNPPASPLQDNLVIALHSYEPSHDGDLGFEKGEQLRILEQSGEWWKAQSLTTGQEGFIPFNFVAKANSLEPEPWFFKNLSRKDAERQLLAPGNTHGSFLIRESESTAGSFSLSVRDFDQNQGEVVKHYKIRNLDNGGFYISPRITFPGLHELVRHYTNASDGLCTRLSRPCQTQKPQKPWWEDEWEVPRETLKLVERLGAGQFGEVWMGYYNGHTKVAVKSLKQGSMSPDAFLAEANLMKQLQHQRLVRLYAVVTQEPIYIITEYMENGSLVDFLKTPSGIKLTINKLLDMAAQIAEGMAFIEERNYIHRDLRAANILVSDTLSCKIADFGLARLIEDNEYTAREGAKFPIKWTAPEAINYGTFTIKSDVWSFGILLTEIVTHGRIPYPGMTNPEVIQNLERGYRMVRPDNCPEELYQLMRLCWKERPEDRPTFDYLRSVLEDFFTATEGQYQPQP

HIPK1 = HIPK1 (Homo sapiens, UniProt Q86Z02)
HIPK1, sequence (Q86Z02 whole entry): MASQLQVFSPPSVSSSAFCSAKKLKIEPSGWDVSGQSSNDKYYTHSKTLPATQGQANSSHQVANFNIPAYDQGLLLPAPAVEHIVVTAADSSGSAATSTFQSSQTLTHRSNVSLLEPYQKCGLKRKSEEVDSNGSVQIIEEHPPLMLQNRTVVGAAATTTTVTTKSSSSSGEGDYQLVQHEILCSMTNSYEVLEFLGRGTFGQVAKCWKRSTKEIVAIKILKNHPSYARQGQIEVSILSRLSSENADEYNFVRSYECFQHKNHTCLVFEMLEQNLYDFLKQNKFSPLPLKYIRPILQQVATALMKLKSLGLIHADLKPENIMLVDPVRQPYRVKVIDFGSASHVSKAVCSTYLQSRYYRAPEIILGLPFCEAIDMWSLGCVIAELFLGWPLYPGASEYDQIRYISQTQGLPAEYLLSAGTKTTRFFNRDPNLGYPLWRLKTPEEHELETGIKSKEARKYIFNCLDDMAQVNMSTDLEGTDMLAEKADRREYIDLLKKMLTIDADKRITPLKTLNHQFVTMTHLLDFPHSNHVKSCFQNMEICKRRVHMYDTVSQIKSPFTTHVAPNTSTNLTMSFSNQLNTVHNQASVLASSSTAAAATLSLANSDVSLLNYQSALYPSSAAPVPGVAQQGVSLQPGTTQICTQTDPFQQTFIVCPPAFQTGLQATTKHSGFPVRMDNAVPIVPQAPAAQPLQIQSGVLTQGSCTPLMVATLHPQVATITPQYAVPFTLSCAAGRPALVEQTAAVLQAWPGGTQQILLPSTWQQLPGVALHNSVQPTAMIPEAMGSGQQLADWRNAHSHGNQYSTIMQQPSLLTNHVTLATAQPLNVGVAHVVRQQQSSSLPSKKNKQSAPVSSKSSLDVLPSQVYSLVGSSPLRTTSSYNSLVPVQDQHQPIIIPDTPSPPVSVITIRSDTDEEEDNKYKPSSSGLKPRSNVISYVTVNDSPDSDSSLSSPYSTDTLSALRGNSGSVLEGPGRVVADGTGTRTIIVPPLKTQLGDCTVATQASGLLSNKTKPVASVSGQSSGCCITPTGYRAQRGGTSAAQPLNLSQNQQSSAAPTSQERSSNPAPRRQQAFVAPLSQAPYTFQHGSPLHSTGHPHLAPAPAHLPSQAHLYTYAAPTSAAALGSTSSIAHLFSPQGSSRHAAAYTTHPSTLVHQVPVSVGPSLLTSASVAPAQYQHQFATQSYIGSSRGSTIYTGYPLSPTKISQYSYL

Compound: COc1ccc2sc(-c3cncc(NC(C)=O)c3)nc2c1 [PST-001, N-(5-(5-Methoxybenzo[d]thiazol-2-yl)pyridin-3-yl)acetamide]
- remaining activity at 100 µM (TTBK1; TTBK1): 110%
- remaining activity at 1 µM (TTBK1): 109%
- remaining activity at 1 µM (LKB1): 123%
- remaining activity at 100 µM (LKB1): 150%
- remaining activity at 1 µM (ZAP70): 123%
- remaining activity at 100 µM (ZAP70): 131%
- remaining activity at 1 µM (CAMKKb): 104%
- remaining activity at 100 µM (CAMKKb): 54%
- remaining activity at 100 µM (p38b MAPK): 115%
- remaining activity at 1 µM (BRK): 106%
- remaining activity at 100 µM (BRK): 106%
- remaining activity at 1 µM (SmMLCK): 118%
- remaining activity at 100 µM (SmMLCK): 99%
- remaining activity at 1 µM (VEG-FR): 111%
- remaining activity at 100 µM (VEG-FR): 41%
- remaining activity at 1 µM (IRAK1): 103%
- remaining activity at 100 µM (IRAK1): 93%
- remaining activity at 1 µM (Lck): 93%
- remaining activity at 100 µM (Lck): 100%
- remaining activity at 1 µM (HIPK1): 113%
- remaining activity at 100 µM (HIPK1): 113%

Compound: COc1ccc2sc(-c3cncc(N)c3)nc2c1 [compound 1, 5-(5-Methoxybenzo[d]thiazol-2-yl)pyridin-3-amine]
- remaining activity at 1 µM (TTBK1; TTBK1, 1 μM): 109%
- remaining activity at 100 µM (TTBK1; TTBK1): 90%
- remaining activity at 1 µM (LKB1; LKB1, 1 μM): 109%
- remaining activity at 100 µM (LKB1; LKB1, 100 μM): 161%
- remaining activity at 1 µM (ZAP70; ZAP70, 1 μM): 119%
- remaining activity at 100 µM (ZAP70; ZAP70, 100 μM): 63%
- remaining activity at 1 µM (CAMKKb; CAMKKb, 1 μM): 107%
- remaining activity at 100 µM (CAMKKb; CAMKKb, 100 μM): 37%
- remaining activity at 1 µM (p38b MAPK; p38b MAPK, 1 μM): 119%
- remaining activity at 100 µM (p38b MAPK; p38b MAPK, 100 μM): 101%
- remaining activity at 1 µM (BRK; BRK, 1 μM): 94%
- remaining activity at 100 µM (BRK; BRK, 100 μM): 50%
- remaining activity at 1 µM (SmMLCK): 98%
- remaining activity at 100 µM (SmMLCK): 41%
- remaining activity at 1 µM (VEG-FR; VEG-FR, 1 μM): 110%
- remaining activity at 100 µM (VEG-FR; VEG-FR, 100 μM): 20%
- remaining activity at 1 µM (IRAK1; IRAK1, 1 μM): 95%
- remaining activity at 100 µM (IRAK1; IRAK1, 100 μM): 24%
- remaining activity at 1 µM (Lck; Lck, 1 μM): 106%
- remaining activity at 100 µM (Lck; Lck, 100 μM): 52%
- remaining activity at 1 µM (HIPK1; HIPK1, 1 μM): 116%
- remaining activity at 100 µM (HIPK1; HIPK1, 100 μM): 36%
